Data from publication PMC7494911.
Values joined by “and” are separate entries in the source; they are usually repeats but may differ in a detail not shown here. Identical values can stand only once. Like-named read-outs stand apart in the source and are kept apart here.

Experiments:
[1] = test system: αvβ6-mediated TGFβ activation; assay: cells; assay type: cell-based, human; conditions: for IC50: Homo sapiens; for activity: read-out: % inhibition of pSmad2 (NHBE cells)
pSmad2 in IPF PCLS = assay: pSmad2 in precision cut lung slices (PCLS) from IPF patients; assay type: cell-based, human; conditions: for IPF PCLS pSmad2/tSmad2 ratio: 1 µM compound, individual replicates n=1-3 (Fig 5f)
Method: Human fibrotic lung tissue was collected from human explants after transplantation. Tissue which the pathologist deemed suitable for research was inflated with 2–3% low boiling point agarose, with the agarose being allowed to set at 4 °C. PCLS were then cut at 400 μm on a vibrating microtome and cultured in DMEM media.

pSmad2 in BAL cells = assay type: in vivo, mouse; conditions: bleomycin mice
Method: (§1) For the measurement of concentration-dependent effects of αvβ6 and TGFβR1 inhibitors on TGFβ activation and signaling in NHBE cells, pSmad2 (normalized to GAPDH) was measured. pSmad2 and GAPDH was quantified using the Milliplex TGFβ Signaling Magnetic Bead Panel 6 plex (Merck Millipore, Billerica, MA, USA) luminex assay according to the manufacturer’s instructions. pSmad2 was determined using the same method for in vivo and ex vivo tissue and BAL samples, however data were normalized to tSmad2. tSmad2 was measured in the Pathscan Total Smad2 sandwich ELISA kit (Cell Signaling Technologies, London, UK), according to the manufacturer’s instructions with standard curves generated using recombinant GST-Smad2. βIG-H3 was determined in mouse and human BAL fluid samples using the mouse or human βIG-H3 DuoSet ELISA kit (R&D Systems, Abingdon, USA) respectively, according to the manufacturer’s instructions. PAI-1 was determined in mouse and human BAL fluid samples using the mouse or human PAI-1 Total antigen ELISA kit (Molecular Innovations, Novi, MI, USA) respectively, according to the manufacturer’s instructions.
(§2) Animal welfare followed the requirements of the Home Office Code of Practice for the Housing and Care of Animals used in Scientific Procedures. […] Play tunnels and bedding material were used to provide environmental enrichment. […]

pSmad2 in lung tissue = assay: Lung tissue pSmad2 in bleomycin-treated mice, single dose; assay type: in vivo, mouse
Method: as §1, §2

[2] = 30 mg/kg p.o., 2 h post dosing, in words
[3] = SB-525334 30 mg/kg p.o., 2 h, individual animals, 30 mg/kg

Row | SMILES | IC50 ([1]; NHBE cells, read-out: IC50 for inhibition of αvβ6-mediated TGFβ activation (pSmad2)) [pM] | IC50 ([1]; NHBE cells, read-out: pIC50 for inhibition of αvβ6-mediated TGFβ activation (pSmad2) (converted)) [pM] | activity ([1]; Log [GSK3008348] M -9) | activity ([1]; Log [GSK3008348] M -10.8) [%] | activity [1] | IC50 (pSmad2 in IPF PCLS; Homo sapiens, IPF PCLS, 48 h, read-out: approximate IC50 for reduction of pSmad2) [pM] | IPF PCLS pSmad2/tSmad2 ratio (pSmad2 in IPF PCLS; IPF PCLS) | pSmad2 levels in IPF PCLS (pSmad2 in IPF PCLS; in words) | pSmad2 levels in BAL cells (pSmad2 in BAL cells; [2]) | BAL cell pSmad2/tSmad2 ratio (pSmad2 in BAL cells; [3]) | activity ([1]; Log [SB-525334] M -6) | activity ([1]; Log [SB-525334] M -9) | activity ([1]; Log [SB-525334] M -11.4) [%] | pIC50 for inhibition of αvβ6-mediated TGFβ activation (pSmad2) ([1]; NHBE cells) | % pSmad2 in IPF PCLS (pSmad2 in IPF PCLS; SB-525334 1µM) | pSmad2 levels in lung tissue (pSmad2 in lung tissue; [2]) | Lung tissue pSmad2/tSmad2 ratio (pSmad2 in lung tissue; [3])
1 | Cc1cc(C)n(-c2cccc([C@H](CC(=O)O)CN3CC[C@@H](CCc4ccc5c(n4)NCCC5)C3)c2)n1 [GSK3008348] | 150 | 741 | 47% and 37% and 58% and 41% | 108 | 92% and 95% | ~3000 | – | – | – | – | – | – | – | – | – | – | –
2 | O=C(O)C[C@@H]1Cc2ccc(OCCCNc3ccccn3)cc2CN(CC(F)(F)F)C1=O [SB-267268] | – | – | – | – | – | – | 0.766 and 0.64 and 0.76 | Neither compound inhibited pSmad2 levels | – | – | – | – | – | – | – | – | –
3 | Cc1cccc(-c2[nH]c(C(C)(C)C)nc2-c2ccc3nccnc3c2)n1 [SB-525334] | – | – | – | – | – | – | 0.063 and 0.062 and 0.055 | – | significantly reduce | 1.33 and 0.67 and 0.7 and 1.48 and 0.61 and 0.44 and 2.35 and 1.1 and 1 | 15% and 11% and 10% and 14% | 138% and 105% and 82% and 100% | 114 | 7.28 ± 0.13 | 1% and 0% and -1% | significantly reduce | 0.09 and 0.07 and 0.1 and 0.13
